According to ChEMBL document CHEMBL4219121, “Synthesis, antitumor activity and DNA binding features of benzothiazolyl and benzimidazolyl substituted isoindolines” (Bioorg Med Chem, 2018):
Activity calls are given as the source filed them. No cut-off for these calls is given here.

How the values were obtained:
[1] = target: T1, DNA topoisomerase 1 (Homo sapiens) (UniProt P11387); test: Poison activity at human topoisomerase1 assessed as accumulation of nicked DNA at 5 to 50 uM using supercoiled pUC19 as substrate pretreated with substrate for 45 mins followed by enzyme addition measured by agarose gel electrophoresis
T1 sequence (whole entry): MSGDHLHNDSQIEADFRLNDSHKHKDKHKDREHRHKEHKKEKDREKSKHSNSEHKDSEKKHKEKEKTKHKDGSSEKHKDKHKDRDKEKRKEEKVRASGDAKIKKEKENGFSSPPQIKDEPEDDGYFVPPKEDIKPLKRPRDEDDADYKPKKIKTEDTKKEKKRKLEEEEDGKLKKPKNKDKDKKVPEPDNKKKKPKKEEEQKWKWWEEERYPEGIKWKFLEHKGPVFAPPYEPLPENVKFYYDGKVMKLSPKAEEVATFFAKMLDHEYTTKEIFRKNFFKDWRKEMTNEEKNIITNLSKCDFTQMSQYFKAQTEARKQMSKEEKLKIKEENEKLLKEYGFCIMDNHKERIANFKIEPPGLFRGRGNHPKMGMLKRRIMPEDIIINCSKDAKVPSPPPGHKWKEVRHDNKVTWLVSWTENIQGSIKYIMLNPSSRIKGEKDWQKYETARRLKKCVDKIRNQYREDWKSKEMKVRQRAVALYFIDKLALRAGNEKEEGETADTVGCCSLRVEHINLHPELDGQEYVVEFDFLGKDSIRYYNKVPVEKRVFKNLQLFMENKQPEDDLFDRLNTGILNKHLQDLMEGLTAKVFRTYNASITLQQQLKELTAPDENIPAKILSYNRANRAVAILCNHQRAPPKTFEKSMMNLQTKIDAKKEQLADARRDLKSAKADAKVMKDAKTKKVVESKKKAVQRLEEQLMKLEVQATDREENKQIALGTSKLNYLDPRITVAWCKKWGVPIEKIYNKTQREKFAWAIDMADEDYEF

[2] = target: T1, DNA topoisomerase 1 (Homo sapiens); test: Poison activity at human topoisomerase1 assessed as accumulation of nicked DNA at 20 uM using supercoiled pUC19 as substrate pretreated with substrate for 45 mins followed by enzyme addition measured by agarose gel electrophoresis relative to control
[3] = target: T1, DNA topoisomerase 1 (Homo sapiens); test: Poison activity at human topoisomerase1 assessed as accumulation of nicked DNA at 50 uM using supercoiled pUC19 as substrate pretreated with substrate for 45 mins followed by enzyme addition measured by agarose gel electrophoresis relative to control
[4] = target: T1, DNA topoisomerase 1 (Homo sapiens); test: Poison activity at human topoisomerase1 assessed as accumulation of nicked DNA at 10 uM using supercoiled pUC19 as substrate pretreated with substrate for 45 mins followed by enzyme addition measured by agarose gel electrophoresis relative to control
[5] = target: DNA topoisomerase 2-alpha (Homo sapiens) (UniProt P11388); test: Poison activity at human topoisomerase2 assessed as accumulation of linear DNA at 10 to 50 uM using supercoiled pUC19 as substrate pretreated with substrate for 45 mins followed by […] measured by ethidium bromide staining based agarose gel electrophoresis
Sequence of DNA topoisomerase 2-alpha (Homo sapiens) (P11388 whole entry): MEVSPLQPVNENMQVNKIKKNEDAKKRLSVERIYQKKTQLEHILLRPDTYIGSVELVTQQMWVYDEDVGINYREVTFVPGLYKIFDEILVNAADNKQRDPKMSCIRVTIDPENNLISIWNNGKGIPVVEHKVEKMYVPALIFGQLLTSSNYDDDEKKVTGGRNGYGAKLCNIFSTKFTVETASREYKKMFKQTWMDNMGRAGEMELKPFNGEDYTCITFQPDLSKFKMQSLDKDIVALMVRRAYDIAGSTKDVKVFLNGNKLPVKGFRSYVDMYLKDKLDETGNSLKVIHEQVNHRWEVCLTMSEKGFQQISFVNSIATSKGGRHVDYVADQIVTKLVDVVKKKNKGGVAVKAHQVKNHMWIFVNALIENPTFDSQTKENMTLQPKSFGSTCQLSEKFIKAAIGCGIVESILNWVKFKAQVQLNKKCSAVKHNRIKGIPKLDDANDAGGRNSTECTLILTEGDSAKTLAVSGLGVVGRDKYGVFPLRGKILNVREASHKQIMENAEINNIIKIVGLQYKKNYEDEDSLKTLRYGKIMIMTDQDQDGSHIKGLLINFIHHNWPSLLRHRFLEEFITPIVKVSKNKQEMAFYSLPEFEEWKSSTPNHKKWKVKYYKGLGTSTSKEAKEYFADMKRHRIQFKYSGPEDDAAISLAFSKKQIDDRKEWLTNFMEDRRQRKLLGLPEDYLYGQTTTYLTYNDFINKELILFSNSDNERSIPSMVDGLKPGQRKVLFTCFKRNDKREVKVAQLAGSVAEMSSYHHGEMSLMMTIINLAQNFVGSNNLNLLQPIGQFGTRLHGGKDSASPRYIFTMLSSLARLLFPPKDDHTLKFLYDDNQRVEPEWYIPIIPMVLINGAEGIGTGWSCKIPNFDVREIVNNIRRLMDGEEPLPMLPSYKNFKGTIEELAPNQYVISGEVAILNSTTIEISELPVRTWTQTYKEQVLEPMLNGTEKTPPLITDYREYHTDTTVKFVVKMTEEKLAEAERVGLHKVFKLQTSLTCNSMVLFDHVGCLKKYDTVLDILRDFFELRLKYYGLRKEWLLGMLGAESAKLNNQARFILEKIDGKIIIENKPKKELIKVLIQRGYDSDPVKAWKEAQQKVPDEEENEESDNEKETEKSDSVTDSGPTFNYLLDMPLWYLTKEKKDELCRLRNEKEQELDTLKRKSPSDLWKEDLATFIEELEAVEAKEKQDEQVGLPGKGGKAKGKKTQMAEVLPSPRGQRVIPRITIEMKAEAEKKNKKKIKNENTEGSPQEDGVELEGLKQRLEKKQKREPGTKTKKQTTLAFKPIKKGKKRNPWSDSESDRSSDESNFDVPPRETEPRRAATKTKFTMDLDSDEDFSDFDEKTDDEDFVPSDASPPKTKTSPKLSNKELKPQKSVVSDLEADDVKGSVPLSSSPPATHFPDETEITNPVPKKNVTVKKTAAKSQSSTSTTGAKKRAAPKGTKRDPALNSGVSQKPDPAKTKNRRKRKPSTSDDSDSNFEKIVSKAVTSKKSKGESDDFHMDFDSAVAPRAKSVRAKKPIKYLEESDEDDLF

SW-620 [6] = test: Induction of apoptosis in human SW620 cells assessed as activation of caspase-8 at 0.5 uM after 24 to 48 hrs by colorimetric assay; assay type: functional, cell-based
HepG2 = test: Antiproliferative activity against human HepG2 cells after 72 hrs by MTT assay; assay type: functional, cell-based; settings: HepG2, 72 h
HeLa [7] = test: Cell cycle arrest in human HeLa cells assessed as accumulation at subG1 phase at 1 uM after 48 hrs by propidium iodide staining based flow cytometric method (reference value: 17 to 20.1 %); assay type: functional
HeLa [8] = test: Cell cycle arrest in human HeLa cells assessed as accumulation at subG1 phase at 0.5 uM after 48 hrs by propidium iodide staining based flow cytometric method (reference value: 17 to 20.1 %); assay type: functional
HeLa [9] = test: Antiproliferative activity against human HeLa cells after 72 hrs by MTT assay; assay type: functional, cell-based
[10] = Drug uptake in nucleus of human Caki2 cells at 50 uM measured after 5 hrs by Phalloidin CruzFluorTM 488 conjugate/propidium iodide staining based fluorescence microscopic analysis; assay type: ADME, subcellular; settings: caki-2, 5 h
HeLa [11] = test: Induction of apoptosis in human HeLa cells assessed as phenotypic changes after 24 to 48 hrs by microscopic analysis; assay type: functional, cell-based
Calf thymus DNA [12] = test: Binding affinity to calf thymus DNA assessed as change in melting temperature at drug/DNA ratio of 1 by spectrophotmetric method; assay type: nucleic-acid assay; settings: Bos taurus
Calf thymus DNA [13] = test: Binding affinity to calf thymus DNA assessed as change in melting temperature at drug/DNA ratio of 0.25 by spectrophotmetric method; assay type: nucleic-acid assay; settings: Bos taurus
SW-620 [14] = test: Cell cycle arrest in human SW620 cells assessed as accumulation at subG1 phase at 1 uM after 48 hrs by propidium iodide staining based flow cytometric method (reference value: 4.1 to 11.3 %); assay type: functional
BJ = test: Antiproliferative activity against human BJ cells after 72 hrs by MTT assay; assay type: cell-based
SW-620 [15] = test: Induction of apoptosis in human SW620 cells assessed as activation of caspase-6 at 0.5 uM measured after 48 hrs by colorimetric assay; assay type: functional, cell-based
HeLa [16] = test: Cell cycle arrest in human HeLa cells assessed as accumulation at subG1 phase at 0.5 to 1 uM after 24 hrs by propidium iodide staining based flow cytometric method; assay type: functional
Calf thymus DNA [17] = test: Binding affinity to calf thymus DNA at 1 to 50 uM by circular dichroism spectral analysis; assay type: nucleic-acid assay; settings: Bos taurus
SW-620 [18] = test: Induction of apoptosis in human SW620 cells assessed as phenotypic changes after 24 to 48 hrs by microscopic analysis; assay type: functional, cell-based
[19] = Drug uptake in human Caki2 cells at 50 uM measured after 5 hrs by Phalloidin CruzFluorTM 488 conjugate/propidium iodide staining based fluorescence microscopic analysis; assay type: ADME, cell-based; settings: caki-2, 5 h
MCF7 = test: Antiproliferative activity against human MCF7 cells after 72 hrs by MTT assay; assay type: functional, cell-based; settings: MCF7, 72 h
SW-620 [20] = test: Cell cycle arrest in human SW620 cells assessed as accumulation at subG1 phase at 0.5 to 1 uM after 24 hrs by propidium iodide staining based flow cytometric method; assay type: functional
Calf thymus DNA [21] = test: Binding affinity to calf thymus DNA assessed as change in melting temperature at drug/DNA ratio of 0.5 by spectrophotmetric method; assay type: nucleic-acid assay; settings: Bos taurus
SW-620 [22] = test: Cell cycle arrest in human SW620 cells assessed as accumulation at subG1 phase at 0.5 uM after 48 hrs by propidium iodide staining based flow cytometric method (reference value: 4.1 to 11.3 %); assay type: functional
SW-620 [23] = test: Induction of apoptosis in human SW620 cells assessed as activation of caspase-2 at 0.5 uM measured after 48 hrs by colorimetric assay; assay type: functional, cell-based
CAKI-2 = test: Cytotoxicity against human Caki2 cells after 72 hrs by MTT assay; assay type: functional, cell-based; settings: CAKI-2, 72 h
[24] = Drug uptake in cytoplasm of human Caki2 cells at 50 uM measured after 5 hrs by Phalloidin CruzFluorTM 488 conjugate/propidium iodide staining based fluorescence microscopic analysis; assay type: ADME, subcellular; settings: caki-2, 5 h
HeLa [25] = test: Induction of apoptosis in human HeLa cells assessed as activation of caspase-8 at 0.5 uM after 24 to 48 hrs by colorimetric assay; assay type: functional, cell-based
SW-620 [26] = test: Antiproliferative activity against human SW620 cells after 72 hrs by MTT assay; assay type: functional, cell-based; settings: SW-620, 72 h
SW-620 [27] = test: Induction of apoptosis in human SW620 cells assessed as activation of caspase-6 at 1 uM measured after 48 hrs by colorimetric assay; assay type: functional, cell-based
SW-620 [28] = test: Cell cycle arrest in human SW620 cells assessed as accumulation at subG1 phase at 1 to 5 uM after 24 hrs by propidium iodide staining based flow cytometric method; assay type: functional
HeLa [29] = test: Cell cycle arrest in human HeLa cells assessed as accumulation at subG1 phase at 5 uM after 48 hrs by propidium iodide staining based flow cytometric method (reference value: 17 to 20.1 %); assay type: functional
HeLa [30] = test: Induction of apoptosis in human HeLa cells assessed as activation of caspase-8 at 1 uM after 24 to 48 hrs by colorimetric assay; assay type: functional, cell-based
SW-620 [31] = test: Induction of apoptosis in human SW620 cells assessed as activation of caspase-8 at 1 uM after 24 to 48 hrs by colorimetric assay; assay type: functional, cell-based
HeLa [32] = test: Cell cycle arrest in human HeLa cells assessed as accumulation at subG1 phase at 1 to 5 uM after 24 hrs by propidium iodide staining based flow cytometric method; assay type: functional
SW-620 [33] = test: Induction of apoptosis in human SW620 cells assessed as activation of caspase-2 at 1 uM measured after 48 hrs by colorimetric assay; assay type: functional, cell-based
HeLa [34] = test: Induction of apoptosis in human HeLa cells assessed as activation of caspase-2 at 1 uM measured after 48 hrs by colorimetric assay; assay type: functional, cell-based
SW-620 [35] = test: Cell cycle arrest in human SW620 cells assessed as accumulation at subG1 phase at 5 uM after 48 hrs by propidium iodide staining based flow cytometric method (reference value: 4.1 to 11.3 %); assay type: functional
Calf thymus DNA [36] = test: Binding affinity to calf thymus DNA at 1 to 25 uM by circular dichroism spectral analysis; assay type: nucleic-acid assay; settings: Bos taurus
[37] = target: T1, DNA topoisomerase 1 (Homo sapiens); test: Inhibition of human topoisomerase1-mediated DNA relaxation assessed as DNA intercalation at 5 to 50 uM using supercoiled pUC19 as substrate pretreated with substrate for 45 mins followed by enzyme addition measured by agarose gel electrophoresis

SMILES	Activity [1]	fold change (FC) [2]	fold change (FC) [3]	fold change (FC) [4]	Activity [5]	IC50 (HepG2) [µM]	Activity (HeLa [7]) [%]	IC50 (HeLa [9]) [µM]	Drug uptake [10]	Activity (HeLa [11])	ΔTm (Calf thymus DNA [12]) [°C]	ΔTm (Calf thymus DNA [13]) [°C]	Activity (SW-620 [14]) [%]	IC50 (BJ) [µM]	Drug uptake [19]	IC50 (MCF7) [µM]	ΔTm (Calf thymus DNA [21]) [°C]	IC50 (CAKI-2) [µM]	Drug uptake [24]	IC50 (SW-620 [26]) [µM]	other results
CC[C@@]1(O)C(=O)OCc2c1cc1n(c2=O)Cc2cc3ccccc3nc2-1	Active	2.3 to 2.9	2.5 to 3.2	2	–	–	–	–	–	–	–	–	–	–	–	–	–	–	–	–	–
COc1cc([C@@H]2c3cc4c(cc3[C@@H](O[C@@H]3O[C@@H]5CO[C@@H](C)O[C@H]5[C@H](O)[C@H]3O)[C@H]3COC(=O)[C@H]23)OCO4)cc(OC)c1O	–	–	–	–	Active	–	–	–	–	–	–	–	–	–	–	–	–	–	–	–	–
CC(C)NC(=N)c1ccc2nc(N3Cc4ccccc4C3=O)sc2c1.Cl	–	–	–	–	Active	0.34	38.1	0.32	Active	Active	4.4	1.2	59.9	0.05	Active	0.36	3.2	0.75	Active	0.15	Activity (SW-620 [6]): inactive; Activity (HeLa [8]): 45.7%; Activity (SW-620 [15]): Active; Activity (HeLa [16]): inactive; Activity (Calf thymus DNA [17]): Active; Activity (SW-620 [18]): Active; Activity (SW-620 [20]): inactive; Activity (SW-620 [22]): 33.9%; Activity (SW-620 [23]): Active; Activity (HeLa [25]): inactive
Cl.O=C1c2ccccc2CN1c1nc2ccc(C3=NCCN3)cc2s1	–	–	–	–	Active	0.78	29.1	1	Active	Active	6.2	1.8	34.4	0.2	Active	0.7	3.1	1.5	Active	0.74	Activity (SW-620 [27]): Active; Activity (SW-620 [28]): inactive; Activity (HeLa [29]): 70.7%; Activity (HeLa [30]): inactive; Activity (SW-620 [31]): inactive; Activity (HeLa [32]): inactive; Activity (SW-620 [33]): Active; Activity (HeLa [34]): Active; Activity (Calf thymus DNA [17]): Active; Activity (SW-620 [18]): Active; Activity (SW-620 [35]): 85.9%
Cl.Cl.c1ccc2c(c1)CN(c1nc3ccc(C4=NCCN4)cc3s1)/C2=N/c1nc2ccc(C3=NCCN3)cc2s1	Active	3.7 to 9	3.5	1.5 to 3.7	–	35	–	74.5	Active	–	12.2	6.8	–	31.8	Active	1.48	10.5	12.6	Active	> 100	Activity (Calf thymus DNA [36]): Active; inhibition (qualitative) [37]: Active
CC(C)NC(=N)c1ccc2nc(/N=C3\c4ccccc4CN3c3nc4ccc(C(=N)NC(C)C)cc4[nH]3)[nH]c2c1.Cl.Cl	Active	–	2.2	–	–	84.8	–	96.8	Active	–	–	7	–	> 100	Active	66.1	12.9	> 100	Active	> 100	Activity (Calf thymus DNA [36]): Active; inhibition (qualitative) [37]: Active
